The record followed here is ChEMBL document CHEMBL5113482, “Discovery of fused benzimidazole-imidazole autophagic flux inhibitors for treatment of triple-negative breast cancer” (Eur J Med Chem, 2022).

Activity calls are given as the source filed them. The rule behind the calls is not given here.

In one assay the test system is SCC-25. Description: Antiproliferative activity against human SCC-25 cells assessed as cell growth inhibition measured after 48 hrs by MTT assay. In kind it is functional, cell-based. Conditions: SCC-25, 48 h. (In general: Tetrazolium assays rely on reduction of a dye to a coloured formazan, in cell work by metabolically active cells.)
The next assay concerns ASPC1. Description: Antiproliferative activity against human ASPC cells assessed as cell growth inhibition measured after 48 hrs by MTT assay. In kind it is functional, cell-based. The note with it: ASPC1, 48 h.
Assay [1] has as its system MDA-MB-231. Description: Inhibition of autophagy in human MDA-MB-231 cells assessed as increase in p62 expression at 5 to 20 uM measured after 48 hrs by Western blot analysis. In kind it is functional, cell-based. The note with it: dose 5-20 µM, DDE = dose-dependent effect. On the technique in general: In western blotting, separated proteins are transferred to a membrane and probed.

The subject of assay [2] is MDA-MB-468. Description: Inhibition of autophagy in human MDA-MB-468 cells assessed as increase in p62 expression at 5 to 20 uM measured after 48 hrs by Western blot analysis. In kind it is functional, cell-based. Conditions: dose 5-20 µM, DDE = dose-dependent effect.
In another assay the test system is HeLa. Description: Inhibition of autophagic flux in human HeLa cells expressing mRFP-EGFP-LC3B assessed as blockage of autophagosome-lysosome fusion by measuring accumulation of yellow fluorescent vesicles. In kind it is functional, cell-based.
Assay [3] concerns the target Serine-protein kinase ATM (Homo sapiens) (UniProt Q13315). Description: Activation of ATM phosphorylation in human MDA-MB-468 cells at 5 to 20 uM measured after 6 to 48 hrs by Western blot analysis. In kind it is cell-based. Conditions: filed as activator, dose 5-20 µM, time 6-48 hrs.
The target of another assay is T1, Nibrin (Homo sapiens) (UniProt O60934).
T1 sequence (whole entry): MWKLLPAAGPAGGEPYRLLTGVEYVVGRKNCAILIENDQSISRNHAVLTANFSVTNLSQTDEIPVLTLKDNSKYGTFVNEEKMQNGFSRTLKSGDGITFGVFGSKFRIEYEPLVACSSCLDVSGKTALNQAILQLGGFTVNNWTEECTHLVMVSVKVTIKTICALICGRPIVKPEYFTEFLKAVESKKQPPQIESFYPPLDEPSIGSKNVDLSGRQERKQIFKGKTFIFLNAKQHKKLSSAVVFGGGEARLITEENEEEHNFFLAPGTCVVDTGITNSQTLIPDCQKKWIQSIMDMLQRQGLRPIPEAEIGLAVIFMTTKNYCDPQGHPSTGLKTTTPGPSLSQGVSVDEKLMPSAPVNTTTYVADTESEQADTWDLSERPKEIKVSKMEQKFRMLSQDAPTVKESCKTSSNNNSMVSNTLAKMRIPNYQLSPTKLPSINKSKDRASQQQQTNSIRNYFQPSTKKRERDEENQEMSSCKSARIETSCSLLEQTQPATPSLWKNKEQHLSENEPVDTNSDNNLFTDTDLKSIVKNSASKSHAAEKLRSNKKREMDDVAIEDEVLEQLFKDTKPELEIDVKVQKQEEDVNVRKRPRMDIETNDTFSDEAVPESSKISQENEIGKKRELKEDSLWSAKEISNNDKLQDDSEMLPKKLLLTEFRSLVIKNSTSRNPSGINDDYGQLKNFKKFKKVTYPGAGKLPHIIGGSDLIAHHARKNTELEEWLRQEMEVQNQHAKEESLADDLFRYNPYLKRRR
Description: Activation of NBS1 phosphorylation in human MDA-MB-468 cells at 5 to 20 uM measured after 6 to 48 hrs by Western blot analysis. The class given is cell-based. Conditions: filed as activator, dose 5-20 µM, time 6-48 hrs.

Assay [4] relates to MDA-MB-468. Description: Induction of DNA damage in human MDA-MB-468 cells assessed as reduction in BRCA2 expression measured after 6 to 48 hrs by Western blot analysis. In kind it is functional, cell-based. Conditions: dose 5-20 µM, time 6-48 hrs, DDE = dose-dependent effect.
Assay [5] concerns MDA-MB-468. Description: Induction of DNA damage in human MDA-MB-468 cells assessed as reduction in RAD51 expression measured after 6 to 48 hrs by Western blot analysis. In kind it is functional, cell-based. The note with it: dose 5-20 µM, time 6-48 hrs, DDE = dose-dependent effect.
The subject of assay [6] is MDA-MB-231. Description: Inhibition of autophagic flux in human MDA-MB-231 cells assessed as increase in nuclear p62 expression measured after 48 hrs by immunofluorescence analysis. Conditions: dose 5-20 µM, DDE = dose-dependent effect. The class given is functional, cell-based.
Assay [7] has as its system MDA-MB-231. Description: Inhibition of autophagic flux in human MDA-MB-231 cells assessed as increase in cytoplasmic p62 expression measured after 48 hrs by Western blot analysis. The class given is functional, cell-based. Conditions: dose 5-20 µM, DDE = dose-dependent effect.
Assay [8] relates to MDA-MB-231. Description: Cell cycle arrest in human MDA-MB-231 cells assessed as increase in CHK2 phosphorylation at Thr 68 residue measured after 48 hrs by Western blot analysis. In kind it is functional, cell-based. The note with it: dose 5-20 µM, DDE = dose-dependent effect.
In assay [9] the test system is MDA-MB-468. Description: Cell cycle arrest in human MDA-MB-468 cells assessed as reduction in cyclin B expression measured after 48 hrs by Western blot analysis. The class given is functional, cell-based. Conditions: dose 5-20 µM, DDE = dose-dependent effect.
Assay [10] deals with MDA-MB-468. Description: Cell cycle arrest in human MDA-MB-468 cells assessed as increase in p21 expression measured after 48 hrs by Western blot analysis. The class given is functional, cell-based. The note with it: dose 5-20 µM, DDE = dose-dependent effect.
Assay [11] deals with MDA-MB-468. Description: Induction of apoptosis in human MDA-MB-468 cells assessed as increase in late apoptotic cells measured after 48 hrs by Annexin V-FITC/propidium iodide staining based flow cytometry. In kind it is functional, cell-based. The note with it: dose 5-20 µM, DDE = dose-dependent effect. A general note: In flow cytometry, cells or beads pass a laser one at a time.

Assay [12] concerns MDA-MB-231. Description: Induction of apoptosis in human MDA-MB-231 cells assessed as reduction in Bcl-2 expression measured after 48 hrs by Western blot analysis. The class given is functional, cell-based. Conditions: dose 5-20 µM, DDE = dose-dependent effect.
Assay [13] has as its system MDA-MB-231. Description: Induction of apoptosis in human MDA-MB-231 cells assessed as increase in cleaved caspase-9 expression measured after 48 hrs by Western blot analysis. The class given is functional, cell-based. The note with it: dose 5-20 µM, DDE = dose-dependent effect.
Assay [14] deals with MDA-MB-468. Description: Induction of apoptosis in human MDA-MB-468 cells assessed as increase in cleaved caspase-9 expression measured after 48 hrs by Western blot analysis. In kind it is functional, cell-based. Conditions: dose 5-20 µM, DDE = dose-dependent effect.
The test system of assay [15] is MDA-MB-231. Description: Antitumor activity against human MDA-MB-231 cells xenografted in ip dosed NOD/SCID mouse assessed as upregulation of gamma-H2AX expression administered at 3 days interval for 24 days and measured on day 25 by Western blot analysis. The class given is functional, organism-based. The note with it: dose 5-15 mg/kg, time 25.0 day, DDE = dose-dependent effect.

For assay [16], the system named is MDA-MB-231. Description: Antitumor activity against human MDA-MB-231 cells xenografted in ip dosed NOD/SCID mouse assessed as upregulation of PARP expression administered at 3 days interval for 24 days and measured on day 25 by Western blot analysis. In kind it is functional, organism-based. The note with it: dose 5-15 mg/kg, time 25.0 day, DDE = dose-dependent effect.

Chain of Serine-protein kinase ATM (Homo sapiens) (Q13315 whole entry): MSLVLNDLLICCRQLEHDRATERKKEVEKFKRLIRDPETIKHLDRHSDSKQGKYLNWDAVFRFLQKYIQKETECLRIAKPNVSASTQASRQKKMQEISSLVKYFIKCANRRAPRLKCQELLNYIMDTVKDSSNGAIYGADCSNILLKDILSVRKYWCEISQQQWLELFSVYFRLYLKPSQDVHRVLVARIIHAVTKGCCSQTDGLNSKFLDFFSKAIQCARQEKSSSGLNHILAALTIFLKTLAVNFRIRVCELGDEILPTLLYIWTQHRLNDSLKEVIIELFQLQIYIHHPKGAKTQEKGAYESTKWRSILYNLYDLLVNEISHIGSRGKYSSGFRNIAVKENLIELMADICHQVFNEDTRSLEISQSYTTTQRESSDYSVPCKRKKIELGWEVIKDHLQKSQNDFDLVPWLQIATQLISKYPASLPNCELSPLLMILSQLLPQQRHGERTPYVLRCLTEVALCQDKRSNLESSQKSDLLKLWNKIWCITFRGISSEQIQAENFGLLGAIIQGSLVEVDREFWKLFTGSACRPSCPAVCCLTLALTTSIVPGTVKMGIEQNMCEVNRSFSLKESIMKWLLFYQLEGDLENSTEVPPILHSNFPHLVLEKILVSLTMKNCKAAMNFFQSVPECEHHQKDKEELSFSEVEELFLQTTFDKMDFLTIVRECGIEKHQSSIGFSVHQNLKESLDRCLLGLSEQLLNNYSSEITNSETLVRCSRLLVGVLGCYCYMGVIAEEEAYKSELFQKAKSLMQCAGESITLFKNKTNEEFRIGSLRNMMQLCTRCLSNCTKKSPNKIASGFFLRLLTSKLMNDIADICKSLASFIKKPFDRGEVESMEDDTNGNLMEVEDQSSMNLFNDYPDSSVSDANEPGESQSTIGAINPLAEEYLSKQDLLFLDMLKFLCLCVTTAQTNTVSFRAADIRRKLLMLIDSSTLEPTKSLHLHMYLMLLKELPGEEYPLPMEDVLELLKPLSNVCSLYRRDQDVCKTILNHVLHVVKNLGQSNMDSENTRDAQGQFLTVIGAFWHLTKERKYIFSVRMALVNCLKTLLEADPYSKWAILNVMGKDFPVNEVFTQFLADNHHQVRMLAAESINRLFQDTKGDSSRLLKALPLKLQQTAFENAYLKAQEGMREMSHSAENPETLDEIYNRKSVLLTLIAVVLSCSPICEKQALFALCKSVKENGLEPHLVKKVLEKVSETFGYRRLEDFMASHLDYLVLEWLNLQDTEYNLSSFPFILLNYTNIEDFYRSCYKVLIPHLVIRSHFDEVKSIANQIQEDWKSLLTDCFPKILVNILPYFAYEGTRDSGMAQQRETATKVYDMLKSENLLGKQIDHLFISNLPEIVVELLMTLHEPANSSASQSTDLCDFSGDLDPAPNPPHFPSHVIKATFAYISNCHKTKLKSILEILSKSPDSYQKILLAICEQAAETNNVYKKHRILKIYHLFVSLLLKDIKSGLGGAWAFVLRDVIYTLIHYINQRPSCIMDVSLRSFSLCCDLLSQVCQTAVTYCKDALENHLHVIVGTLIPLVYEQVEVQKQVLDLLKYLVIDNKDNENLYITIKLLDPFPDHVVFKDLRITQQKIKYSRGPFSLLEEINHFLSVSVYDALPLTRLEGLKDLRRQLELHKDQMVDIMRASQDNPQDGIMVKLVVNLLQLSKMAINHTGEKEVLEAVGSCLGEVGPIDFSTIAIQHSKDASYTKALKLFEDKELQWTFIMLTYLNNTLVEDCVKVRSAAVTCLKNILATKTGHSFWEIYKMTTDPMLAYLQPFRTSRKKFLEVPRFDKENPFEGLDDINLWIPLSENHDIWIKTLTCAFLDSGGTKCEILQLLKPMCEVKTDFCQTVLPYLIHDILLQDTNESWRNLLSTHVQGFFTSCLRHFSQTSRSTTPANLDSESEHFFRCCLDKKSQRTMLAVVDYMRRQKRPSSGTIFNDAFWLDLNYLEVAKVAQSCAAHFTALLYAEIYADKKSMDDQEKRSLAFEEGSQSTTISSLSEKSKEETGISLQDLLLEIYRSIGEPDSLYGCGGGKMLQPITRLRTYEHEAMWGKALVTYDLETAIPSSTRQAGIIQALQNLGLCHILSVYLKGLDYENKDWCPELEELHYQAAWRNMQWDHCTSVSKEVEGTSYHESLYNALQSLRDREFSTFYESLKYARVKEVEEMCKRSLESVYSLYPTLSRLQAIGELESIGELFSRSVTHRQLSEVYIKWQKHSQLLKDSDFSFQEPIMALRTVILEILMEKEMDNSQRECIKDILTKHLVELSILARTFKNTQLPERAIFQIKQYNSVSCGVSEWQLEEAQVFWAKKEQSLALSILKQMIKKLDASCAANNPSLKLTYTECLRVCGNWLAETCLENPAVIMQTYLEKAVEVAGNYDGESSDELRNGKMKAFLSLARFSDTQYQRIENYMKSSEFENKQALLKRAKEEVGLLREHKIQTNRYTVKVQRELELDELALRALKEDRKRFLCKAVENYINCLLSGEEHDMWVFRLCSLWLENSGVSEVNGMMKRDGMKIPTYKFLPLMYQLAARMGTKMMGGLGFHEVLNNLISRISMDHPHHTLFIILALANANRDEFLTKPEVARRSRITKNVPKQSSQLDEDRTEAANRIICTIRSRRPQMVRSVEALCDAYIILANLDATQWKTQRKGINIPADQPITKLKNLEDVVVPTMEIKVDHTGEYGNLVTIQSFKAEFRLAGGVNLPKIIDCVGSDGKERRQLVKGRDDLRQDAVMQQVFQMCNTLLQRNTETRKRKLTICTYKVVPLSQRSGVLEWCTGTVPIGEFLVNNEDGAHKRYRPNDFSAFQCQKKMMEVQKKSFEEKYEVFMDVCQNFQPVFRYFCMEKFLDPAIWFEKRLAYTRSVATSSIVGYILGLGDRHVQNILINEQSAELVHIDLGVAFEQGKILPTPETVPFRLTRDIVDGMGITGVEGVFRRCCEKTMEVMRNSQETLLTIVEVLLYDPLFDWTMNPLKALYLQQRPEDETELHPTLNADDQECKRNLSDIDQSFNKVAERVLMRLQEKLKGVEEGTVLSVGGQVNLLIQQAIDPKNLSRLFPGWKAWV

The term IC50 denotes the midpoint of a concentration-inhibition curve. With `O=C(NC1CCCCC1)c1[nH]cnc1-c1nc2ccccc2[nH]1`, the IC50 was 18.6 µM in the assay with SCC-25 and 26.9 µM with ASPC1. The inhibition result in the assay on MDA-MB-231 [1], in the assay with MDA-MB-468 [2], with MDA-MB-231 [6] and in the assay on MDA-MB-231 [7] was “Dde” throughout. Further, in the assay on HeLa, the inhibition entry is “Active”. For the same molecule, the outcome (in [3]; at Nibrin (Homo sapiens)) was Active. Also, the Activity result in the assay with MDA-MB-468 [4], with MDA-MB-468 [5], with MDA-MB-231 [8], in the assay with MDA-MB-468 [9], with MDA-MB-468 [10] and in the assay on MDA-MB-468 [11] was “Dde” throughout. Moreover, the Activity entry in the assay with MDA-MB-231 [12], in the assay with MDA-MB-231 [13], in the assay on MDA-MB-468 [14], in the assay with MDA-MB-231 [15] and in the assay with MDA-MB-231 [16] was “Dde” each time.
